From patent US7989438B2, “Therapeutic compounds” (Istituto di Ricerche di Biologia Molecolare P. Angeletti SpA, priority 2007, dated 2011)
Like-named read-outs stand apart in the source and are kept apart here.

Test system: HCV subgenomic replication
Experiment: Cell based HCV replication assay (subgenomic replicon in Huh-7 cells, NS3 Cell-ELISA)
Settings: activity ranges
From the text: Cell clones that stably maintain subgenomic HCV replicon were obtained by transfecting Huh-7 cells with an RNA replicon identical to I377neo/NS3-3′/wt described by Lohmann et al. (1999) (EMBL-genbank No. AJ242652), followed by selection with neomycin sulfate (G418). Viral replication was monitored by measuring the expression of the NS3 protein by an ELISA assay performed directly on cells grown in 96 wells microtiter plates (Cell-ELISA) using the anti-NS3 monoclonal antibody 10E5/24 (as described in published International application WO 02/59321). Cells were seeded into 96 well plates at a density of 10^4 cells per well in a final volume of 0.1 ml of DMEM/10% FCS. Two hours after plating, 50 μl of DMEM/10% FCS containing a 3× concentration of inhibitor were added, cells were incubated for 96 hours and then fixed for 10 minutes with ice-cold isopropanol. Each condition was tested in duplicate and average absorbance values were used for calculations. The cells were washed twice with PBS, blocked with 5% non-fat dry milk in PBS+0.1% Triton X100+0.02% SDS (PBSTS) and then incubated o/n at 4° C. with the 10E5/24 mab diluted in Milk/PBSTS. After washing 5 times with PBSTS, the cells were incubated for 3 hours at room temperature with Fc specific anti-mouse IgG conjugated to alkaline phosphatase (Sigma), diluted in Milk/PBSTS. After washing again as above, the reaction was developed with p-Nitrophenyl phosphate disodium substrate (Sigma) and the absorbance at 405/620 nm read at intervals. For calculations, we used data sets where samples incubated without inhibitors had absorbance values comprised between 1 and 1.5. The inhibitor concentration that reduced by 50% the expression of NS3 (IC50) was calculated by fitting the data to the Hill equation, Fraction inhibition=1−(Ai−b)/(A0−b)=[I]^n/([I]^n+[…]) where: • Ai=absorbance value of HBI10 cells supplemented with the indicated inhibitor concentration. • A0=absorbance value of HBI10 cells incubated without inhibitor. • b=absorbance value of Huh-7 cells plated at the same density in the same microtiter plates and incubated without inhibitor. • n=Hill coefficient.

[1] = Table A, Huh-7 replicon cells, 96 hours, read-out: IC50 (nM), Inhibition of HCV subgenomic replication
[2] = Table 5, various macrocycles, read-out: IC50* (nM), Inhibition of HCV subgenomic replication
[3] = Table 4, various macrocycles, read-out: IC50* (nM), Inhibition of HCV subgenomic replication
[4] = Table 2, various macrocycles, read-out: IC50* (nM), Inhibition of HCV subgenomic replication
[5] = Table 1, 16 membered macrocycles, read-out: IC50* (nM), Inhibition of HCV subgenomic replication

Question: How did the IC50 [1] turn out when `COc1cccc2c1OCC1Cn3c-2c(C2CCCCC2)c2ccc(cc23)C(=O)NS(=O)(=O)N(C)CCNCCN1C` [Compound A27, (7R)-14-cyclohexyl-4-methoxy-18,24-dimethyl-7,8-dihydro-6H-7,11-(epiminoethanoiminoethanoiminothioiminomethano)indolo[1,2-e][1,5]benzoxazocin-15-one 17,17-dioxide] was run?
Answer: Its IC50 is less than 25 nM.

Question: “(5R)-31-cyclohexyl-4,24-dimethyl-7-oxa-23-thia-1,4,15,22,24-pentaazahexacyclo[23.2.2.1^5,15.1^14,17.1^16,20.0^8,13]dotriaconta-8,10,12,14(31),16(30),17,19-heptaen-21-one 23,23-dioxide [Example 305]” was tested. Which IC50 (Table 3, various macrocycles, read-out: IC50* (nM), Inhibition of HCV subgenomic replication) did it give?
Answer: Its IC50 is less than 25 nM.

Question: For `CN1CCN2CCCN(CC2)S(=O)(=O)NC(=O)c2ccc3c(C4CCCCC4)c4n(c3c2)C[C@@H]1COc1ccccc1-4` [Example 304, (20R)-31-cyclohexyl-21-methyl-18-oxa-2-thia-1,3,10,21,24-pentaazahexacyclo[22.3.2.1^5,9.1^8,11.1^10,20.0^12,17]dotriaconta-5(32),6,8,11(31),12,14,16-heptaen-4-one 2,2-dioxide], which IC50 (Hepatitis C virus, Huh-7, Table 3, various macrocycles, read-out: IC50* (nM), Inhibition of HCV subgenomic replication) is on record?
Answer: Its IC50 is less than 25 nM.

Question: `COc1ccc2c(c1)OCC1CCN(C)CC(F)CN(C)S(=O)(=O)NC(=O)c3ccc4c(C5CCCCC5)c-2n(c4c3)C1` [Example 525, (7R)-14-cyclohexyl-20-fluoro-3-methoxy-18,22-dimethyl-7,8-dihydro-6H-7,11-(ethanoiminopropanoiminothioiminomethano)indolo[1,2-e][1,5]benzoxazocin-15-one 17,17-dioxide] was tested. Which IC50 [2] did it give?
Answer: Its IC50 is less than 25 nM.

Question: For `CN1CCN(C)C2COc3ccccc3-c3c(C4CCCCC4F)c4ccc(cc4n3C2)C(=O)NS(=O)(=O)N(C)CC1` (single isomer, unassigned) [Example 413, (7R)-14-[(1R,2S) or (1S,2R)-2-fluorocyclohexyl]-18,21,24-trimethyl-7,8-dihydro-6H-7,11-(epiminoethanoiminoethanoiminothioiminomethano)-indolo[1,2-e][1,5]benzoxazocin-15-one 17,17-dioxide], which IC50 [3] is on record?
Answer: Its IC50 is less than 25 nM.

Question: Which IC50 [4] does the source give for `CCN1CCN(CCO)[C@H]2COc3cc(C)ccc3-c3c(C4CCCCC4)c4ccc(cc4n3C2)C(=O)NS(=O)(=O)N(C)CC1` [Example 214, (7R)-14-cyclohexyl-21-ethyl-24-(2-hydroxyethyl)-3,18-dimethyl-7,8-dihydro-6H-7,11-(epiminoethanoiminoethanoiminothioiminomethano)-indolo[1,2-e][1,5]benzoxazocin-15-one 17,17-dioxide] here?
Answer: The IC50 was less than 25 nM.

Question: Which IC50 [4] does the source give for `CCN1CCN(Cc2cccnc2)C2COc3ccc(F)cc3-c3c(C4CCCCC4)c4ccc(cc4n3C2)C(=O)NS(=O)(=O)N(C)CC1` [Example 206, (7R)-14-cyclohexyl-21-ethyl-2-fluoro-18-methyl-24-(pyridin-3-ylmethyl)-7,8-dihydro-6H-7,11-(epiminoethanoiminoethanoiminothioiminomethano)-indolo[1,2-e][1,5]benzoxazocin-15-one 17,17-dioxide] here?
Answer: The IC50 was less than 25 nM.

Question: How did the IC50 [5] turn out when `CN1CCN(CCO)CCN(C)S(=O)(=O)NC(=O)c2ccc3c(C4CCCCC4)c4n(c3c2)CC1COc1ccccc1-4` [Example 103, (7R)-14-cyclohexyl-21-(2-hydroxyethyl)-18,24-dimethyl-7,8-dihydro-6H-7,11-(epiminoethanoiminoethanoiminothioiminomethano)-indolo[1,2-e][1,5]benzoxazocin-15-one 17,17-dioxide] was run?
Answer: The IC50 was less than 25 nM.

Question: `CN1CCN2CCCC2CO[C@@H]2COc3ccccc3-c3c(C4CCCCC4)c4ccc(cc4n3C2)C(=O)NS1(=O)=O` (stereo partly drawn) [Compound A17, (20S)-31-cyclohexyl-10-methyl-19,22-dioxa-9-thia-1,8,10,13-tetraazahexacyclo[18.9.1.1^2,6.1^3,29.0^13,17.0^23,28]dotriaconta-2(32),3,5,23,25,27,29(31)-heptaen-7-one 9,9-dioxide] was tested. Which IC50 (Hepatitis C virus, Table A, Huh-7 replicon cells, 96 hours, read-out: IC50 (nM), Inhibition of HCV subgenomic replication) did it give?
Answer: The IC50 was 25 to 150 nM.

Question: `CN1CCN(Cc2ccccc2)CCN(C)S(=O)(=O)NC(=O)c2ccc3c(C4CCCCC4)c4n(c3c2)CC1Cc1ccccc1-4` (stereo not shown) [Example 201, 20-benzyl-13-cyclohexyl-17,23-dimethyl-6,7-dihydro-5H-6,10-(epiminoethanoiminoethanoiminothioiminomethano)-indolo[2,1-a][2]benzazepin-14-one 16,16-dioxide] was tested. Which IC50 [4] did it give?
Answer: Its IC50 is greater than 500 nM.

Question: Which IC50 [3] does the source give for `CN1CCN(CC(N)=O)C2COc3ccccc3-c3c(C4CCCCC4)c4ccc(cc4n3C2)C(=O)NS(=O)(=O)N(C)CC1` [Example 408, 2-[(7R)-14-cyclohexyl-18,21-dimethyl-17,17-dioxido-15-oxo-7,8-dihydro-6H-7,11-(epiminoethanoiminoethanoiminothioiminomethano)-indolo[1,2-e][1,5]benzoxazocin-24-yl]acetamide] here?
Answer: The IC50 was 25 to 150 nM.

Question: With `CN1CCN(C)[C@H]2COc3c(OCc4ccccc4)cccc3-c3c(C4CCCCC4)c4ccc(cc4n3C2)C(=O)NS(=O)(=O)N(C)CC1` [Example 411, (7R)-4-(benzyloxy)-14-cyclohexyl-18,21,24-trimethyl-7,8-dihydro-6H-7,11-(epiminoethanoiminoethanoiminothioiminomethano)-indolo[1,2-e][1,5]benzoxazocin-15-one 17,17-dioxide] as the compound, how does the IC50 [3] read?
Answer: The IC50 was 25 to 150 nM.

Question: With `CN1CCN(C)C2COc3c(OCCN4CCCC4)cccc3-c3c(C4CCCCC4)c4ccc(cc4n3C2)C(=O)NS(=O)(=O)N(C)CC1` [Compound A32, (7R)-14-cyclohexyl-18,21,24-trimethyl-4-(2-pyrrolidin-1-ylethoxy)-7,8-dihydro-6H-7,11-(epiminoethanoiminoethanoiminothioiminomethano)indolo[1,2-e][1,5]benzoxazocin-15-one 17,17-dioxide] as the compound, how does the IC50 [1] read?
Answer: The IC50 was less than 25 nM.

Question: How did the IC50 [2] turn out when `Cc1cccc2c1OCC1Cn3c-2c(C2CCCCC2)c2ccc(cc23)C(=O)NS(=O)(=O)N(C)CCNCCN1C` [Example 515, (7R)-14-cyclohexyl-4,18,24-trimethyl-7,8-dihydro-6H-7,11-(epiminoethanoiminoethanoiminothioiminomethano)-indolo[1,2-e][1,5]benzoxazocin-15-one 17,17-dioxide] was run?
Answer: The IC50 was less than 25 nM.

Question: `CN1CCCN(C)S(=O)(=O)NC(=O)c2ccc3c(C4CCCCC4)c4n(c3c2)CC(CC1)COc1ccccc1-4` (stereo not shown) [Example 101, 14-cyclohexyl-18,22-dimethyl-7,8-dihydro-6H-7,11-(ethanoiminopropanoiminothioiminomethano)indolo[1,2-e][1,5]benzoxazocin-15-one 17,17-dioxide] was tested. Which IC50 [5] did it give?
Answer: Its IC50 is 25 to 150 nM.

Question: `Cc1cccc2c1OC[C@@H]1CCCN(C)CCN(C)S(=O)(=O)NC(=O)c3ccc4c([C@H]5CCCC[C@@H]5F)c-2n(c4c3)C1` [Example 513, (7R)-14-[(1R,2S)-2-fluorocyclohexyl]-4,18,21-trimethyl-7,8-dihydro-6H-7,11-(propanoiminoethanoiminothioiminomethano)indolo[1,2-e][1,5]benzoxazocin-15-one 17,17-dioxide] was tested. Which IC50 [2] did it give?
Answer: The IC50 was less than 25 nM.

Question: For `COc1cccc2c1OCC1Cn3c-2c(C2CCCCC2)c2ccc(cc23)C(=O)NS(=O)(=O)N(C)CCN(C)CCN1C` [Example 412, (7R)-14-cyclohexyl-4-methoxy-18,21,24-trimethyl-7,8-dihydro-6H-7,11-(epiminoethanoiminoethanoiminothioiminomethano)-indolo[1,2-e][1,5]benzoxazocin-15-one 17,17-dioxide], which IC50 [3] is on record?
Answer: Its IC50 is less than 25 nM.

Question: With `Cc1cccc2c1OCC1Cn3c-2c(C2CCCCC2)c2ccc(cc23)C(=O)NS(=O)(=O)N(C)CCN(C)CCN1C` [Example 516, (7R)-14-cyclohexyl-4,18,21,24-tetramethyl-7,8-dihydro-6H-7,11-(epiminoethanoiminoethanoiminothioiminomethano)-indolo[1,2-e][1,5]benzoxazocin-15-one 17,17-dioxide] as the compound, how does the IC50 [2] read?
Answer: Its IC50 is less than 25 nM.

Question: For `CCN1CCN(C)[C@H]2COc3c(C)cccc3-c3c(C4CCCCC4)c4ccc(cc4n3C2)C(=O)NS(=O)(=O)N(C)CC1` [Compound A19, (7R)-14-cyclohexyl-21-ethyl-4,18,24-trimethyl-7,8-dihydro-6H-7,11-(epiminoethanoiminoethanoiminothioiminomethano)indolo[1,2-e][1,5]benzoxazocin-15-one 17,17-dioxide], which IC50 [1] is on record?
Answer: Its IC50 is less than 25 nM.
